Experimental data as given in patent publication US5292733A, “Cephalosporin compounds” (Lucky Limited, priority 1991, dated 1994).
Values after ≈ are worked out from the molar mass of the structure shown.

Tests used:
Experiment in all cases: Antibacterial activity MIC, two-fold agar dilution
Type in all cases: cell-based
[1] = system: Acinetobacter calcoaceticus ATCC 15473; conditions: ATCC15473; Acinetobacter calcoaceticus ATCC 15473; Muller-Hinton agar, 37° C., 20 hours; read-out: Antibacterial Activity MIC
Description: (§1) These MIC values were taken by employing a two-fold dilution method: that is, two-fold serial dilutions of each of the test compounds were made and dispersed in a Muller-Hinton agar medium; 2 μl of the standard test strain which had the 10^7 CFU(Colony Forming Unit) per ml was inoculated on the medium; and these were incubated at 37° C. for 20 hours. The results of the MIC tests are shown Table 1.

[2] = system: Bacillus cereus ATCC 11778; conditions: ATCC11778; Bacillus cereus ATCC 11778; Muller-Hinton agar, 37° C., 20 hours; read-out: Antibacterial Activity MIC
Description: as §1

[3] = system: Bacillus megaterium ATCC 9885; conditions: Priestia megaterium, ATCC9885; Bacillus megaterium ATCC 9885; Muller-Hinton agar, 37° C., 20 hours; read-out: Antibacterial Activity MIC
Description: as §1

[4] = system: Citrobacter freundii ATCC 8090; conditions: ATCC8090; Citrobacter freundii ATCC 8090; Muller-Hinton agar, 37° C., 20 hours; read-out: Antibacterial Activity MIC
Description: as §1

[5] = system: Enterobacter aerogenes ATCC 29751; conditions: Klebsiella aerogenes, ATCC29751; Enterobacter aerogenes ATCC 29751; Muller-Hinton agar, 37° C., 20 hours; read-out: Antibacterial Activity MIC
Description: as §1

[6] = system: Enterobacter cloacae ATCC 27508; conditions: ATCC27508; Enterobacter cloacae ATCC 27508; Muller-Hinton agar, 37° C., 20 hours; read-out: Antibacterial Activity MIC
Description: as §1

[7] = system: Escherichia coli ATCC 10536; conditions: ATCC10536, Muller-Hinton agar, 37° C., 20 hours
Description: as §1

[8] = system: Escherichia coli ATCC 25922; conditions: ATCC25922, Muller-Hinton agar, 37° C., 20 hours
Description: as §1

[9] = system: Klebsiella pneumoniae ATCC 10031; conditions: ATCC10031; Klebsiella pneumoniae ATCC 10031; Muller-Hinton agar, 37° C., 20 hours; read-out: Antibacterial Activity MIC
Description: as §1

[10] = system: Micrococcus luteus ATCC 9341; conditions: ATCC9341; Micrococcus luteus ATCC 9341; Muller-Hinton agar, 37° C., 20 hours; read-out: Antibacterial Activity MIC
Description: as §1

[11] = system: Morganella morganii ATCC 8076h; conditions: ATCC8076H, Muller-Hinton agar, 37° C., 20 hours
Description: as §1

[12] = system: Proteus mirabilis ATCC 25933; conditions: ATCC25933; Proteus mirabilis ATCC 25933; Muller-Hinton agar, 37° C., 20 hours; read-out: Antibacterial Activity MIC
Description: as §1

[13] = system: Proteus vulgaris ATCC 6059; conditions: ATCC6059; Proteus vulgaris ATCC 6059; Muller-Hinton agar, 37° C., 20 hours; read-out: Antibacterial Activity MIC
Description: as §1

[14] = system: Providencia rettgeri ATCC 9250; conditions: ATCC9250, Muller-Hinton agar, 37° C., 20 hours
Description: as §1

[15] = system: Pseudomonas aeruginosa ATCC 10145; conditions: ATCC10145; Pseudomonas aeruginosa ATCC 10145; Muller-Hinton agar, 37° C., 20 hours; read-out: Antibacterial Activity MIC
Description: as §1

[16] = system: Pseudomonas aeruginosa ATCC 25619; conditions: ATCC25619; Pseudomonas aeruginosa ATCC 25619; Muller-Hinton agar, 37° C., 20 hours; read-out: Antibacterial Activity MIC
Description: as §1

[17] = system: Pseudomonas aeruginosa ATCC 27853; conditions: ATCC27853; Pseudomonas aeruginosa ATCC 27853; Muller-Hinton agar, 37° C., 20 hours; read-out: Antibacterial Activity MIC
Description: as §1

[18] = system: Salmonella typhimurium ATCC 14028; conditions: Salmonella enterica; Salmonella typhimurium ATCC 14028; Muller-Hinton agar, 37° C., 20 hours; read-out: Antibacterial Activity MIC
Description: as §1

[19] = system: Serratia marcescens ATCC 27117; conditions: ATCC27117; Serratia marcescens ATCC 27117; Muller-Hinton agar, 37° C., 20 hours; read-out: Antibacterial Activity MIC
Description: as §1

[20] = system: Shigella flexneri ATCC 11836; conditions: ATCC11836, Muller-Hinton agar, 37° C., 20 hours
Description: as §1

[21] = system: Shigella sonnei ATCC 11060; conditions: ATCC11060, Muller-Hinton agar, 37° C., 20 hours
Description: as §1

[22] = system: Staphylococcus aureus ATCC 10537; conditions: ATCC10537; Staphylococcus aureus ATCC 10537; Muller-Hinton agar, 37° C., 20 hours; read-out: Antibacterial Activity MIC
Description: as §1

[23] = system: Staphylococcus aureus ATCC 6538p; conditions: ATCC6538P; Staphylococcus aureus ATCC 6538p; Muller-Hinton agar, 37° C., 20 hours; read-out: Antibacterial Activity MIC
Description: as §1

[24] = system: Staphylococcus epidermidis ATCC 12228; conditions: ATCC12228; Staphylococcus epidermidis ATCC 12228; Muller-Hinton agar, 37° C., 20 hours; read-out: Antibacterial Activity MIC
Description: as §1

[25] = system: Streptococcus faecalis ATCC 29212; conditions: Enterococcus faecalis, ATCC29212; Streptococcus faecalis ATCC 29212; Muller-Hinton agar, 37° C., 20 hours; read-out: Antibacterial Activity MIC
Description: as §1

Compound	MIC [1]	MIC [2]	MIC [3]	MIC [4]	MIC [5]	MIC [6]	MIC [7]	MIC [8]	MIC [9]	MIC [10]	MIC [11]	MIC [12]	MIC [13]	MIC [14]	MIC [15]	MIC [16]	MIC [17]	MIC [18]	MIC [19]	MIC [20]	also measured
CC[n+]1c(SCC2=C(C(=O)[O-])N3C(=O)[C@@H](NC(=O)/C(=N\OC(C)C(=O)O)c4csc(N)n4)[C@H]3SC2)cc(N)nc1N (stereo partly drawn) [Compound I-4, (6R,7R)-7-[(Z)-2-(2-aminothiazol-4-yl)-2-(R,S-carboxyeth-1-oxyimino)acetamido]-3-(2,6-diamino-3-ethylpyrimidinium-4-yl)thiomethyl-3-cephem-4-carboxylate]	4 µg/mL (≈ 6.41 µM)	64 µg/mL (≈ 103 µM)	0.25 µg/mL (≈ 0.401 µM)	0.13 µg/mL (≈ 0.208 µM)	1 µg/mL (≈ 1.6 µM)	0.016 µg/mL (≈ 0.0257 µM)	0.13 µg/mL (≈ 0.208 µM)	0.13 µg/mL (≈ 0.208 µM)	0.031 µg/mL (≈ 0.0497 µM)	0.5 µg/mL (≈ 0.802 µM)	≤ 0.008 µg/mL	0.31 µg/mL (≈ 0.497 µM)	0.063 µg/mL (≈ 0.101 µM)	≤ 0.008 µg/mL	2 µg/mL (≈ 3.21 µM)	1 µg/mL (≈ 1.6 µM)	2 µg/mL (≈ 3.21 µM)	0.5 µg/mL (≈ 0.802 µM)	0.13 µg/mL (≈ 0.208 µM)	0.031 µg/mL (≈ 0.0497 µM)	MIC [21]: 0.25 µg/mL (≈ 0.401 µM); MIC [22]: 4 µg/mL (≈ 6.41 µM); MIC [23]: 8 µg/mL (≈ 12.8 µM); MIC [24]: 1 µg/mL (≈ 1.6 µM); MIC [25]: > 128 µg/mL
CC[n+]1c(N)cc(SCC2=C(C(=O)[O-])N3C(=O)[C@@H](NC(=O)/C(=N\OC)c4csc(N)n4)[C@H]3SC2)nc1N [Compound I-22, (6R,7)-7-[(Z)-2-(2-aminothiazol-4-yl)-2-(methoxyimino)acetamido]-3-(2,6-diamino-1-ethylpyrimidinium-4-yl)thiomethyl-3-cephem-4-carboxylate]	8 µg/mL (≈ 14.1 µM)	64 µg/mL (≈ 113 µM)	0.25 µg/mL (≈ 0.442 µM)	0.25 µg/mL (≈ 0.442 µM)	0.25 µg/mL (≈ 0.442 µM)	≤ 0.008 µg/mL	0.063 µg/mL (≈ 0.111 µM)	0.063 µg/mL (≈ 0.111 µM)	≤ 0.008 µg/mL	0.031 µg/mL (≈ 0.0548 µM)	≤ 0.008 µg/mL	0.25 µg/mL (≈ 0.442 µM)	0.25 µg/mL (≈ 0.442 µM)	≤ 0.008 µg/mL	8 µg/mL (≈ 14.1 µM)	1 µg/mL (≈ 1.77 µM)	2 µg/mL (≈ 3.54 µM)	0.13 µg/mL (≈ 0.23 µM)	0.25 µg/mL (≈ 0.442 µM)	0.063 µg/mL (≈ 0.111 µM)	MIC [21]: 0.031 µg/mL (≈ 0.0548 µM); MIC [22]: 0.5 µg/mL (≈ 0.884 µM); MIC [23]: 0.25 µg/mL (≈ 0.442 µM); MIC [24]: 0.25 µg/mL (≈ 0.442 µM); MIC [25]: 8 µg/mL (≈ 14.1 µM)
C#CCO/N=C(\C(=O)N[C@@H]1C(=O)N2C(C(=O)[O-])=C(CSc3cc(N)[n+](C)c(N)n3)CS[C@H]12)c1csc(N)n1 [Compound I-14, (6R,7R)-7-[(Z)-2-(2-aminothiazol-4-yl)-2-(2-propyn-1-oxyimino)acetamido]-3-(2,6-diamino-1-methylpyrimidinium-4-yl)thiomethyl-3-cephem-4-carboxylate]	8 µg/mL (≈ 13.9 µM)	64 µg/mL (≈ 111 µM)	0.25 µg/mL (≈ 0.434 µM)	0.25 µg/mL (≈ 0.434 µM)	0.5 µg/mL (≈ 0.869 µM)	0.016 µg/mL (≈ 0.0278 µM)	0.5 µg/mL (≈ 0.869 µM)	0.25 µg/mL (≈ 0.434 µM)	0.016 µg/mL (≈ 0.0278 µM)	0.031 µg/mL (≈ 0.0539 µM)	0.016 µg/mL (≈ 0.0278 µM)	1 µg/mL (≈ 1.74 µM)	1 µg/mL (≈ 1.74 µM)	≤ 0.008 µg/mL	8 µg/mL (≈ 13.9 µM)	1 µg/mL (≈ 1.74 µM)	4 µg/mL (≈ 6.95 µM)	0.25 µg/mL (≈ 0.434 µM)	0.5 µg/mL (≈ 0.869 µM)	0.063 µg/mL (≈ 0.109 µM)	MIC [21]: 0.5 µg/mL (≈ 0.869 µM); MIC [22]: 0.5 µg/mL (≈ 0.869 µM); MIC [23]: 0.5 µg/mL (≈ 0.869 µM); MIC [24]: 0.25 µg/mL (≈ 0.434 µM); MIC [25]: 16 µg/mL (≈ 27.8 µM)
C[n+]1c(N)cc(SCC2=C(C(=O)[O-])N3C(=O)[C@@H](NC(=O)/C(=N\OC(C)(C)C(=O)O)c4csc(N)n4)[C@H]3SC2)nc1N [Compound I-12, (6R,7R)-7-[(Z)-2-(2-aminothiazol-4-yl)-2-(carboxyprop-2-oxyimino)acetamido]-3-(2,6-diamino-1-methylpyrimidinium-4-yl)thiomethyl-3-cephem-4-carboxylate]	8 µg/mL (≈ 12.8 µM)	128 µg/mL (≈ 205 µM)	0.25 µg/mL (≈ 0.401 µM)	0.13 µg/mL (≈ 0.208 µM)	2 µg/mL (≈ 3.21 µM)	0.031 µg/mL (≈ 0.0497 µM)	0.25 µg/mL (≈ 0.401 µM)	0.25 µg/mL (≈ 0.401 µM)	0.063 µg/mL (≈ 0.101 µM)	0.5 µg/mL (≈ 0.802 µM)	≤ 0.008 µg/mL	0.13 µg/mL (≈ 0.208 µM)	0.25 µg/mL (≈ 0.401 µM)	≤ 0.008 µg/mL	2 µg/mL (≈ 3.21 µM)	1 µg/mL (≈ 1.6 µM)	1 µg/mL (≈ 1.6 µM)	0.25 µg/mL (≈ 0.401 µM)	0.5 µg/mL (≈ 0.802 µM)	0.063 µg/mL (≈ 0.101 µM)	MIC [21]: 0.25 µg/mL (≈ 0.401 µM); MIC [22]: 4 µg/mL (≈ 6.41 µM); MIC [23]: 8 µg/mL (≈ 12.8 µM); MIC [24]: 4 µg/mL (≈ 6.41 µM); MIC [25]: > 128 µg/mL
